Data as given in US12492173B2, “Herbicidal substituted N-tetrazolyl aryl carboxamides” (Bayer Aktiengesellschaft, priority 2019, dated 2025).

Tests used:
Assay type in all cases: in vivo
Pharbitis purpurea = test: Post-emergence herbicidal action, PHBPU
Procedure, shortened: (§1)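 Sandy loam, greenhouse; one-leaf stage (2–3 wk after sowing); foliar spray of WP or EC, 600–800 l/ha water + 0.2% wetter; visual rating at ~3 wk vs untreated, % effect.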

Avena fatua = test: Post-emergence herbicidal action, AVEFA; parameters: key: % herbicidal action vs untreated; 100 = plants died, 0 = like control
Procedure, shortened: as §1

Setaria viridis = test: Post-emergence herbicidal action, SETVI; parameters: key: % herbicidal action vs untreated; 100 = plants died, 0 = like control
Procedure, shortened: as §1

Matricaria inodora = test: Pre-emergence herbicidal action, MATIN; parameters: key to Herbicidal action against MATIN: % activity: 100 = plants have died, 0 = like control plants; conditions: for herbicidal action MATIN / herbicidal activity MATIN: dosage 320 g/ha; for herbicidal activity MATIN: scored visually after 3 weeks vs untreated controls (100% = plants have died); for Herbicidal action against MATIN: comparative experiment
Procedure, shortened: (§2)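 Weed seeds sown in sandy loam and covered; WP or EC formulations applied to soil surface as aqueous suspension or emulsion at 600 to 800 l/ha with 0.2% wetting agent. Greenhouse-grown, with damage scored visually after 3 weeks versus untreated controls (0% = like control, 100% = plants dead).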

Viola tricolor = test: Pre-emergence herbicidal action, VIOTR; parameters: key to Herbicidal action against VIOTR: % activity: 100 = plants have died, 0 = like control plants; conditions: for herbicidal action VIOTR / herbicidal activity VIOTR: dosage 320 g/ha; for herbicidal activity VIOTR: scored visually after 3 weeks vs untreated controls (100% = plants have died)
Procedure, shortened: as §2

Polygonum convolvulus = test: Pre-emergence herbicidal action, POLCO; conditions: for herbicidal activity POLCO: scored visually after 3 weeks vs untreated controls (100% = plants have died)
Procedure, shortened: as §2

[1] = comparative experiment, 20 g of a.i./ha
[2] = comparative experiment, post-emergence, 20 g of a.i./ha

Row | Structure (SMILES) | herbicidal action PHBPU (Pharbitis purpurea; Dosage 80 g/ha) | herbicidal action AVEFA (Avena fatua; Dosage 80 g/ha) | herbicidal action SETVI (Setaria viridis; Dosage 80 g/ha) | herbicidal action MATIN (Matricaria inodora) [%] | herbicidal action VIOTR (Viola tricolor) [%] | herbicidal activity MATIN (Matricaria inodora) [%] | herbicidal activity VIOTR (Viola tricolor) [%] | also measured
1 | CCn1nnnc1NC(=O)c1ccc(Cl)c(CSC)c1Cl [Example 2-559] | 100 | 100 | 100 | 90 | 100 | – | – | –
2 | Cn1nnnc1NC(=O)c1ccc(C(F)(F)F)c(CSCC(F)(F)F)c1Cl [Example 1-311] | 100 | 100 | 100 | – | – | 100 | 100 | –
3 | CCCn1nnnc1NC(=O)c1ccc(C(F)(F)F)c(CSC)c1SC [Example 3-161] | 90 | 90 | 100 | 100 | 100 | – | – | –
4 | CCS(=O)(=O)Cc1c(C(F)(F)F)ccc(C(=O)Nc2nnnn2C)c1C [Example 1-88] | 90 | 80 | 90 | 100 | 100 | – | – | –
5 | COc1c(C(=O)Nc2nnnn2C)ccc(Cl)c1CSC [Example 1-570] | – | – | – | 100 | 80 | – | – | Herbicidal action against PHBPU (Pharbitis purpurea; post-emergence, dosage 80 g/ha): 90; Herbicidal action against SETVI (Setaria viridis; post-emergence, dosage 80 g/ha): 80; herbicidal action POLCO (Polygonum convolvulus; dosage 320 g/ha): 80%; Herbicidal action against VIOTR (Viola tricolor; [1]): 70
6 | CCn1nnnc1NC(=O)c1ccc(I)c(C[S+](C)[O-])c1Cl (stereo not shown) [Example 2-363] | 90 | 90 | 90 | – | – | 100 | 100 | –
7 | CSCc1c(C)ccc(C(=O)Nc2nnnn2C)c1Cl [Example 1-287] | – | 80 | 90 | 90 | 90 | – | – | –
8 | CCCn1nnnc1NC(=O)c1ccc(S(C)(=O)=O)c(CSC)c1C [Example 3-37] | 80 | 80 | 90 | 90 | 100 | – | – | –
9 | CCn1nnnc1NC(=O)c1ccc(S(C)(=O)=O)c(CS(C)(=O)=O)c1Cl [Example 2-280] | – | – | – | 90 | 90 | – | – | Herbicidal action against PHBPU (Pharbitis purpurea; post-emergence, dosage 80 g/ha): 90; Herbicidal action against AVEFA (Avena fatua; post-emergence, dosage 80 g/ha): 90; Herbicidal action against SETVI (Setaria viridis; post-emergence, dosage 80 g/ha): 80
10 | CCCn1nnnc1NC(=O)c1ccc(C(F)(F)F)c(CS(C)(=O)=O)c1Br [Example 3-382] | 100 | – | 100 | 100 | 90 | – | – | –
11 | CCn1nnnc1NC(=O)c1ccc(C(F)(F)F)c(CS(=O)(=O)CC)c1Cl [Example 2-301] | 90 | 90 | 90 | 100 | 100 | – | – | –
12 | C=CCSCc1c(C(F)(F)F)ccc(C(=O)Nc2nnnn2CCC)c1Cl [Example 3-308] | 90 | 100 | 100 | – | – | 100 | 100 | –
13 | CCCn1nnnc1NC(=O)c1ccc(C(F)(F)F)c(CSCC(F)(F)F)c1Cl [Example 3-311] | 100 | 100 | 80 | 100 | 100 | – | – | –
14 | Cn1nnnc1NC(=O)c1ccc(I)c(CS(C)(=O)=O)c1Cl [Example 1-364] | – | – | 100 | – | – | 100 | 100 | Herbicidal action against POLCO (Polygonum convolvulus; [1]): 90; herbicidal activity POLCO (Polygonum convolvulus; dosage 320 g/ha): 100%
15 | CCCn1nnnc1NC(=O)c1ccc(I)c(C[S+](C)[O-])c1Cl (stereo not shown) [Example 3-363] | 90 | 80 | 100 | 100 | 100 | – | – | –
16 | CSCc1c(Cl)ccc(C(=O)Nc2nnnn2C)c1Cl [Example 1-559] | – | – | – | 90 | 100 | – | – | herbicidal action PHBPU (Pharbitis purpurea; post-emergence, dosage 80 g/ha): 100%; herbicidal action AVEFA (Avena fatua; post-emergence, dosage 80 g/ha): 100%; herbicidal action SETVI (Setaria viridis; post-emergence, dosage 80 g/ha): 100%
17 | CSCc1c(I)ccc(C(=O)Nc2nnnn2C)c1Cl [Example 1-362] | – | – | – | – | – | 100 | 100 | herbicidal action PHBPU (Pharbitis purpurea; post-emergence, dosage 80 g/ha): 100%; herbicidal action AVEFA (Avena fatua; post-emergence, dosage 80 g/ha): 100%; herbicidal action SETVI (Setaria viridis; post-emergence, dosage 80 g/ha): 90%; Herbicidal action against MATIN (Matricaria inodora; 20 g of a.i./ha): 70
18 | CCCn1nnnc1NC(=O)c1ccc(S(C)(=O)=O)c(CS(C)(=O)=O)c1C [Example 3-39] | 90 | 80 | 90 | 100 | 100 | – | – | –
19 | CCS(=O)(=O)c1c(C(F)(F)F)ccc(C(=O)Nc2nnnn2C)c1Br [Example V-13, 2-bromo-3-(ethylsulfonyl)-N-(1-methyl-1-1H-tetrazol-5-yl)-4-(trifluoromethyl)benzamide, reference compound] | – | – | – | – | – | – | – | Herbicidal action against PHBPU (Pharbitis purpurea; [2]): 0; Herbicidal action against AVEFA (Avena fatua; [2]): 0; Herbicidal action against SETVI (Setaria viridis; [2]): 0; Herbicidal action against MATIN (Matricaria inodora; 80 g of a.i./ha): 0
20 | CCCn1nnnc1NC(=O)c1ccc(C(F)F)c(CS(C)(=O)=O)c1SC [Example 3-172] | 100 | – | – | – | – | 100 | 100 | herbicidal activity POLCO (Polygonum convolvulus; dosage 320 g/ha): 100%
21 | COc1c(C(=O)Nc2nnnn2C)ccc(C(F)(F)F)c1C[S+](C)[O-] (stereo not shown) [Example 1-135] | 90 | – | 100 | 90 | 90 | – | – | –
22 | COCCSCc1c(C(F)(F)F)ccc(C(=O)Nc2nnnn2C)c1Cl [Example 1-305] | – | – | – | – | – | 100 | 100 | herbicidal action PHBPU (Pharbitis purpurea; post-emergence, dosage 80 g/ha): 100%; herbicidal action AVEFA (Avena fatua; post-emergence, dosage 80 g/ha): 100%; herbicidal action SETVI (Setaria viridis; post-emergence, dosage 80 g/ha): 100%
23 | CCCn1nnnc1NC(=O)c1ccc(C(F)F)c(C[S+](C)[O-])c1SC (stereo not shown) [Example 3-171] | 90 | – | – | – | – | 100 | 100 | herbicidal activity POLCO (Polygonum convolvulus; dosage 320 g/ha): 90%
24 | CCCn1nnnc1NC(=O)c1ccc(C(F)(F)F)c(CS(=O)(=O)CC)c1Cl [Example 3-301] | 100 | 90 | 90 | 100 | 100 | – | – | –
25 | CCCn1nnnc1NC(=O)c1ccc(C(F)(F)F)c(CSCC2CC2)c1Cl [Example 3-314] | – | – | – | – | – | 100 | 100 | herbicidal action PHBPU (Pharbitis purpurea; post-emergence, dosage 80 g/ha): 100%; herbicidal action AVEFA (Avena fatua; post-emergence, dosage 80 g/ha): 100%; herbicidal action SETVI (Setaria viridis; post-emergence, dosage 80 g/ha): 100%
26 | CCn1nnnc1NC(=O)c1ccc(C(F)(F)F)c(CS(=O)(=O)CC)c1C [Example 2-88] | 90 | 90 | 90 | 100 | 100 | – | – | –
27 | CCn1nnnc1NC(=O)c1ccc(C(F)F)c(C[S+](C)[O-])c1C (stereo not shown) [Example 2-108] | 100 | – | 90 | 100 | 100 | – | – | –
